| SMILES | melting point [°C] |
| --- | --- |
| O=C(NC[C@@H]1[C@H]2CN(CCc3ccc4c(c3)CCO4)C[C@@H]12)C1c2ccccc2Oc2ccccc21 [Compound No. 11, N-[(1α,5α,6α)-3-(2-(2,3-dihydro-benzofuran-5-yl)-ethyl)-3-aza-bicyclo[3.1.0]hex-6-ylmethyl]-9H-Xanthene-9-carboxylic acid amide] | 165 |
| O=C(N[C@H]1[C@@H]2CNC[C@@H]21)C1c2ccccc2Oc2ccccc21 [Compound No. 6] | 183 to 190 |

Source: patent publication US20080319002A1, “Xanthine Derivatives a Useful as Muscarinic Receptor Antagonists” (RANBAXY LABORATORIES LIMITED, priority 2004, published 2008)
